Test results published in patent US20060148858A1, “1, 2-Azole derivatives with hypoglycemic and hypolipidemic activity” (priority 2002, published 2006).
Read-outs that look alike come from different tables or passages of the source.

How the values were obtained:
KKAY mice [1] = assay: Hypoglycemic and hypolipidemic actions in mice (Test Example 1); format: in vivo; settings: Mus musculus, po, 96 h, 0.005% in powdery diet, four days, non-treated group taken as 100%
Summary of the method: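 KKAY mice (9 to 12 weeks old, 5 per group) were fed diet containing 0.005% test compound ad libitum for four days. Plasma glucose and triglycerides from orbital venous blood were measured enzymatically, reported as % decrease relative to untreated group (100%).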

KKAY mice [2] = assay: Plasma anti-arteriosclerosis index-enhancing action in mice (Test Example 2); format: in vivo; settings: Mus musculus, po, 96 h, 0.005% in powdery diet, four days, percent increase of (HDL cholesterol/total cholesterol)x100, non-treatment group taken as 100%
Procedure: Test compounds were mixed in a powdery diet (CE-2, Japan Clea) at the concentration of 0.005%, and freely given to KKAY mice (9 to 12 weeks old, 5 mice per group), a model of obese and non-insulin dependent diabetes (type 2 diabetes), for four days. During this period, water was given freely. Blood was sampled from orbital venous plexus and components in plasma separated from blood were determined. Total cholesterol levels were determined by using L type Wako Cholesterol (Wako Pure Chemical Industries, Ltd.). Precipitation reagent for HDL cholesterol (Wako Pure Chemical Industries, Ltd.) was added to a part of the plasma to precipitate non-HDL lipoprotein, and cholesterol (HDL cholesterol) in the resulting supernatant was determined. The plasma anti-arteriosclerosis index [(HDL cholesterol/total cholesterol)×100] was calculated by using these cholesterol levels.
In the Table, “Plasma anti-arteriosclerosis index-enhancing action (%)” represents the percent increase (%) of plasma anti-arteriosclerosis index in the treatment group, when the plasma anti-arteriosclerosis index in the non-treatment group is taken as 100%.

PPARγ-RXRα heterodimer = target: T1, PPARγ-RXRα heterodimer (Homo sapiens, UniProt P37231); assay: PPARγ-RXRα heterodimer ligand activity, luciferase reporter in PPARγ:RXRα:4ERPP/CHO-K1 cells (Test Example 3); format: cell-based; settings: 18-48 hours, concentration for 50% of the maximum fold induction
T1 construct: expressed in transfected cells; host or cells: CHO-K1
T1 sequence (P37231 1-477 isoform P37231-2): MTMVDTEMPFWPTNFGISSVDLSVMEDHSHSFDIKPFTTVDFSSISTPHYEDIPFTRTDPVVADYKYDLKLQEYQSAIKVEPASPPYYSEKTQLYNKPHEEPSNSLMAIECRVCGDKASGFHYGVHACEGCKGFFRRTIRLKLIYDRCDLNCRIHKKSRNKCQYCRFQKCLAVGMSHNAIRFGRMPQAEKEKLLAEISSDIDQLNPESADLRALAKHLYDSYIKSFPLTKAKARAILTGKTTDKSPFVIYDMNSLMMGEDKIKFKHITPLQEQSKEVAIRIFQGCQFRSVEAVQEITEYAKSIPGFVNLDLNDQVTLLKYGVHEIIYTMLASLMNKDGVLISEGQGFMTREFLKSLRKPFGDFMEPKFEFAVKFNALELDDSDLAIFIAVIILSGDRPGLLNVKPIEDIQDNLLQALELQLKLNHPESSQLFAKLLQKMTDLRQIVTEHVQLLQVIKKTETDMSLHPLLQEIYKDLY
T1 sequence (P19793 1-462 partner): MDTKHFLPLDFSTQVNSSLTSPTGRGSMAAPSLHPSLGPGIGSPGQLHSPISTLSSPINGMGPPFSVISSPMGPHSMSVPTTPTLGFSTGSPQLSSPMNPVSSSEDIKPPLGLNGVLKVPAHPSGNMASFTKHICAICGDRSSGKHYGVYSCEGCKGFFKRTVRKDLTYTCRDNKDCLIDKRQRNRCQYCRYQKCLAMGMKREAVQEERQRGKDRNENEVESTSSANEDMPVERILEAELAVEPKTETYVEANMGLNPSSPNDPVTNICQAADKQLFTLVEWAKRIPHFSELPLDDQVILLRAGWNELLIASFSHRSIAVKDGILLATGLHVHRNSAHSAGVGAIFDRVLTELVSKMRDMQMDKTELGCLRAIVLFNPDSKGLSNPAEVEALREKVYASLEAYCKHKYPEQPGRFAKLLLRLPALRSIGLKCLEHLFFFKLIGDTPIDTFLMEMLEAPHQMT
Procedure: A PPARγ: RXRα: 4ERPP/CHO-K1 cells obtained in Reference Example 8a described later were cultured in HAM F12 medium (produced by Life Technologies, Inc., USA) containing 10% Fetal bovine serum (produced by Life Technologies, Inc., USA) and then inoculated to a 96-well white plate (produced by Corning Costar Corporation, USA) at the density of 2×10^4 cells/well, and cultured in a CO2 gas incubator at 37° C. overnight.
After removing the medium from 96 well white plate, 80 μl of HAM F12 medium containing 0.1% fatty acid-free bovine serum albumin (BSA) and 20 μl of test compound were added, which was cultured in a CO2 gas incubator at 37° C. for 18-48 hours. After removing the medium, 40 μl of PIKKAGENE 7.5 (produced by Wako Pure Chemical Industries, Ltd.) diluted twice with HBSS (HANKS' BALANCED SALT SOLUTION)(produced by BIO WHITTAKER Inc., USA), was added. After stirring, the luciferase activity was determined using 1420 ARVO Multilabel Counter (produced by PerkinElmer Inc., USA).
A fold induction was calculated based on the luciferase activity of each test compound by taking the luciferase activity in the non-treatment group as 1. The values of the test compound concentration and the fold induction were analyzed using PRISM (produced by GraphPad Software Inc. USA) to calculate the EC50 values, the effective concentration of a test compound for 50% of the maximum fold induction.
After a CHO-K1 cell cultured in a 150 cm^2 cell culture flask (750 ml)(produced by Corning Costar Corporation, USA) containing HAM F12 medium (produced by Life Technologies, Inc., USA) supplemented with 10% Fetal Bovine Serum (produced by Life Technologies, Inc., USA) was scraped by treating with 0.5 g/L trypsin-0.2 g/L EDTA (ethylenediaminetetraacetic acid) (produced by Life Technologies, Inc., USA), the cell was washed with PBS (phosphate-buffered saline) (produced by Life Technologies, Inc., USA), centrifuged (1000 rpm, 5 minutes), and then suspended in PBS. Subsequently, a DNA was introduced into the cell under the condition shown below using GENE PULSER (produced by Bio-Rad Laboratories, USA).
Namely, to a cuvette having a 0.4 cm gap, added were 8×10^6 cells and 10 μg of plasmid pVgRXR2-hPPARγ obtained in Reference Example 7a and 10 μg of reporter plasmid pGL3-4ERPP-TK neo obtained in Reference Example 5a, which was subjected to electroporation at the voltage of 0.25 kV under the capacitance of 960 μF. Subsequently, the cell was transferred into a HAM F12 medium containing 10% Fetal Bovine Serum and cultured for 24 hours and then the cell was scraped again and centrifuged, and then suspended in HAM F12 medium containing 10% Fetal Bovine Serum supplemented with 500 μg/ml of GENETICIN (produced by Life Technologies, Inc., USA) and 250 μg/ml of ZEOCIN (produced by Invitrogen, USA). The obtained suspension was diluted to the density of 10^4 cells/ml and inoculated to a 96-well plate (produced by Corning Costar Corporation, USA), which was cultured in a CO2 gas incubator at 37° C., whereby obtaining a GENETICIN- and ZEOCIN-resistant transformant.
Subsequently, after the transformant cell line thus obtained was cultured in a 24-well plate (produced by Corning Costar Corporation, USA), selected was a cell line in which the luciferase was expressed and induced, i.e., PPARγ:RXRα:4ERPP/CHO-K1 cell by addition of 10 μM of pioglitazone hydrochloride.

[3] = rate of decrease in blood glucose level, read-out: Hypoglycemic action (%)
[4] = rate of decrease in blood triglyceride level, read-out: Hypolipidemic action (%)

**Q.** For CC(C)c1nn(-c2ccc(C(F)(F)F)cn2)cc1CCCOc1cccc(OC(C)(C)C(=O)O)c1 [Example 28, 2-[3-{3-(3-isopropyl-1-[5-(trifluoromethyl)-2-pyridyl]-1H-pyrazol-4-yl}propoxy)phenoxy]-2-methylpropionic acid], which inhibition in vivo at 0.005 % in diet (KKAY mice [1]; [3]) is on record?
**A.** The inhibition in vivo at 0.005 % in diet was 42%.

**Q.** And the inhibition in vivo at 0.005 % in diet (KKAY mice [1]; [4])?
**A.** The inhibition in vivo at 0.005 % in diet was 56%.

**Q.** What about the change in vivo at 0.005 % in diet (KKAY mice [2]) of the same molecule?
**A.** The change in vivo at 0.005 % in diet was 18%.

**Q.** What about the EC50 (PPARγ-RXRα heterodimer) of the same molecule?
**A.** The EC50 was 35 nM.

**Q.** And the melting point?
**A.** The melting point was 101 to 102 °C.

**Q.** What does the source list for CCOc1nn(-c2ccc(C(F)(F)F)cn2)cc1CCCOc1cccc(OC(C)(C)C(=O)O)c1 [Example 29, 2-[3-(3-{3-ethoxy-1-[5-(trifluoromethyl)-2-pyridyl]-1H-pyrazol-4-yl}propoxy)phenoxy]-2-methylpropionic acid]?
**A.** inhibition in vivo at 0.005 % in diet (KKAY mice [1]; [3]): 46%; inhibition in vivo at 0.005 % in diet (KKAY mice [1]; [4]): 65%; change in vivo at 0.005 % in diet (KKAY mice [2]): 23%; EC50 (PPARγ-RXRα heterodimer): 160 nM; melting point: 120 to 121 °C

**Q.** For CCCc1nn(-c2ccc(C(F)(F)F)cn2)cc1CCCOc1cccc(OC(C)(C)C(=O)O)c1 [Example 41, 2-methyl-2-[3-(3-{3-propyl-1-[5-(trifluoromethyl)-2-pyridyl]-1H-pyrazol-4-yl}propoxy)phenoxy]propionic acid], which inhibition in vivo at 0.005 % in diet (KKAY mice [1]; [3]) is on record?
**A.** The inhibition in vivo at 0.005 % in diet was 25%.

**Q.** What about the inhibition in vivo at 0.005 % in diet (KKAY mice [1]; [4]) of the same molecule?
**A.** The inhibition in vivo at 0.005 % in diet was 48%.

**Q.** And the change in vivo at 0.005 % in diet (KKAY mice [2])?
**A.** The change in vivo at 0.005 % in diet was 12%.

**Q.** What about the EC50 (PPARγ-RXRα heterodimer) of the same molecule?
**A.** The EC50 was 77 nM.

**Q.** And the melting point?
**A.** Its melting point is 99 to 100 °C.

**Q.** What does the source list for CCCc1nn(-c2ccc(C(F)(F)F)cn2)cc1CCCOc1c(CC(=O)O)cccc1OC [Example 259, [3-methoxy-2-(3-{3-propyl-1-[5-(trifluoromethyl)-2-pyridyl]-1H-pyrazol-4-yl}propoxy)phenyl]acetic acid]?
**A.** inhibition in vivo at 0.005 % in diet (KKAY mice [1]; [3]): 34%; inhibition in vivo at 0.005 % in diet (KKAY mice [1]; [4]): 70%; change in vivo at 0.005 % in diet (KKAY mice [2]): 25%; EC50 (PPARγ-RXRα heterodimer): 76 nM; melting point: 122 to 123 °C

**Q.** For O=C(O)Cc1ccccc1OCCCc1cn(-c2ccc(C(F)(F)F)cn2)nc1C1CCCCC1 [Example 302, [2-(3-{3-cyclohexyl-1-[5-(trifluoromethyl)-2-pyridinyl]-1H-pyrazol-4-yl}propoxy)phenyl]acetic acid], which change in vivo at 0.005 % in diet (KKAY mice [2]) is on record?
**A.** The change in vivo at 0.005 % in diet was 24%.

**Q.** And the EC50 (PPARγ-RXRα heterodimer)?
**A.** Its EC50 is 37 nM.

**Q.** And the melting point?
**A.** The melting point was 127 to 128 °C.

**Q.** With Cn1cc(CC(=O)O)c(OCCCc2cn(-c3ccc(C(F)(F)F)cn3)nc2C2CCCCC2)n1 [Example 303, [3-(3-{3-cyclohexyl-1-[5-(trifluoromethyl)-2-pyridinyl]-1H-pyrazol-4-yl}propoxy)-1-methyl-1H-pyrazol-4-yl]acetic acid] as the molecule, how does the change in vivo at 0.005 % in diet (KKAY mice [2]) read?
**A.** The change in vivo at 0.005 % in diet was 14%.

**Q.** What about the EC50 (PPARγ-RXRα heterodimer) of the same molecule?
**A.** The EC50 was 52 nM.

**Q.** What about the melting point of the same molecule?
**A.** The melting point was 157 to 158 °C.

**Q.** With Cc1cccc(CC(=O)O)c1OCCCc1cn(-c2ccc(C(F)(F)F)cn2)nc1C(C)C [Example 315, [2-(3-{3-isopropyl-1-[5-(trifluoromethyl)-2-pyridinyl]-1H-pyrazol-4-yl}propoxy)-3-methylphenyl]acetic acid] as the molecule, how does the inhibition in vivo at 0.005 % in diet (KKAY mice [1]; [3]) read?
**A.** Its inhibition in vivo at 0.005 % in diet is 53%.

**Q.** And the inhibition in vivo at 0.005 % in diet (KKAY mice [1]; [4])?
**A.** Its inhibition in vivo at 0.005 % in diet is 70%.

**Q.** What about the change in vivo at 0.005 % in diet (KKAY mice [2]) of the same molecule?
**A.** The change in vivo at 0.005 % in diet was 11%.

**Q.** And the EC50 (PPARγ-RXRα heterodimer)?
**A.** Its EC50 is 35 nM.

**Q.** And the melting point?
**A.** The melting point was 159 to 160 °C.

**Q.** For COc1cccc(CC(=O)O)c1OCCCc1cn(-c2ccc(C(C)=O)cn2)nc1C(C)C [Example 332, (2-{3-[1-(5-acetyl-2-pyridinyl)-3-isopropyl-1H-pyrazol-4-yl]propoxy}-3-methoxyphenyl)acetic acid], which change in vivo at 0.005 % in diet (KKAY mice [2]) is on record?
**A.** Its change in vivo at 0.005 % in diet is 11%.

**Q.** What about the EC50 (PPARγ-RXRα heterodimer) of the same molecule?
**A.** The EC50 was 29 nM.

**Q.** What about the melting point of the same molecule?
**A.** Its melting point is 148 to 149 °C.

**Q.** What does the source list for CCC(CC)c1nn(-c2ccc(C(F)(F)F)cn2)cc1CCCOc1nn(CC)cc1CC(=O)O [Example 333, [1-ethyl-3-(3-{3-(1-ethylpropyl)-1-[5-(trifluoromethyl)-2-pyridinyl]-1H-pyrazol-4-yl}propoxy)-1H-pyrazol-4-yl]acetic acid]?
**A.** change in vivo at 0.005 % in diet (KKAY mice [2]): 11%; EC50 (PPARγ-RXRα heterodimer): 61 nM
